Assay results published in US20250249113A1, “LIGAND-DRUG-CONJUGATES WITH IMPROVED PHARMACOKINETIC AND DRUG RELEASE PROPERTIES” (Debiopharm Research & Manufacturing S.A., priority 2022, published 2025).
Where a SMILES comes first, the peptide text is derived from it. Side-chain parts run from the residue outwards. [ ]: non-standard residue; d: D form. The star is where a group is joined. DM1Mal(CH2)2CO = COc1cc2cc(c1Cl)N(C)C(=O)C[C@H](OC(=O)[C@H](C)N(C)C(=O)CCSC1CC(=O)N(CCC(=O)*)C1=O)[C@]1(C)O[C@H]1[C@H](C)[C@@H]1C[C@@](O)(NC(=O)O1)[C@H](OC)/C=C/C=C(\C)C2; X1 = CC(=O)N[C@@H](CSC1CC(=O)N(CCC(=O)*)C1=O)C(=O)O; Dolaproine = CO[C@@H]([C@@H]1CCCN1)[C@@H](C)C(=O)O; Dil = CC[C@H](C)[C@H](NC)[C@@H](CC(=O)O)OC; NMe2Val = CC(C)[C@@H](C(=O)*)N(C)C; PEG5 = NCCOCCOCCOCCOCCOCCC(=O)O; Cit = NC(=O)NCCC[C@H](N)C(=O)O; PEG4 = NCCOCCOCCOCCOCCC(=O)O

Legend:
Cathepsin B = molecular target: T1, Cathepsin B (Homo sapiens, UniProt P07858); experiment: Cat B-induced cleavage study (in vitro enzymatic cleavage assay, UHPLC-MS/MS); format: biochemical; conditions: for half-life at 10 μM: human, recombinant human Cathepsin B, 10 μM compound, Cathepsin B 2 μg/mL, 25 mM MES buffer pH 5.0, 37° C., read-out: T1/2 Compound; for Ratio (T1/2 Compound/T1/2 Reference): reference: Cys-MC-Val-Cit-PABC-MMAF
T1 construct: purchased R&D Systems, Bio-Techne AG 953-CY-010
Procedure: (§1) The propensity of compounds 1-13 to be cleaved by Cathepsin B—was evaluated according to an in vitro enzymatic cleavage assay using recombinant human Cathepsin B and UHPLC-MS/MS analysis as described below.
(§2) Reference compounds Cys-MC-Val-Cit-PABC-MMAF and MMAF were used as positive controls. The enzyme was reconstituted in 25 mM MES buffer adjusted at pH 5.0 with a 1M NaOH solution and then activated with a […] solution of DDT at room temperature for at least 15 min.
(§3) The in vitro enzymatic assay was conducted at 37° C. with the test compounds at a concentration of 10 μM (2.5 μM when the test compound is an antibody-drug conjugate) in the presence of activated recombinant human Cathepsin B enzyme at 2 μg/mL in a 25 mM MES buffer pH 5.0. The enzymatic cleavage reaction was stopped for each defined time point by mixing an equal volume of acetonitrile+0.1% FA containing an internal standard (warfarine at 8 μM).
(§4) Analysis was conducted using a Waters Acquity UPLC System coupled to a Waters Xevo TQ triple quad mass spectrometer. UHPLC was conducted depending on the test compounds with a BEH C8 1.7 μm 100×2.1 mm or BEH C18 1.7 μm 50×2.1 mm or HSS T3 1.7 μm 50×2.1 mm columns heated at 45° C. or 50° C. and fitted with 2 μm insert filter pre-columns (available from Waters), and solvent systems A1 (H2O+0.1% FA) and B1 (acetonitrile+0.1% FA) at a flow rate of 0.6 mL/min and a 10-95% gradient of B1 over 1.9 min.
(§5) MS/MS was performed using electrospray ionization (ESI) interface in positive mode and specific MRM transitions for each tested compound.

[1] = DRF toxicity study of DM1-Ac-Cit and DM1-Ac-Cit-Lys(Cys-ma-Lys(PEG16))-Tyr-OH, 2 intravenous bolus injections (Day 1 and Day 8), female mice; format: in vivo, mouse; conditions: for related mortalities, clinical observations or effects on body weights and food consumption / related ophthalmic findings or changes in clinical pathology parameters / related organ weight changes, macroscopic and microscopic findings: DM1-Ac-Cit 0.15, 0.68 or 1.4 mg/kg/adm, DM1-Ac-Cit-Lys(Cys-ma-Lys(PEG16))-Tyr-OH 3.5 mg/kg/adm, 2 i.v. injections
Procedure: The objectives of this study were to determine the potential toxicity of Multilink-DM1-Ac-Cit and DM1-Ac-Cit-Lys(Cys-ma-Lys(PEG16))-Tyr-OH when administered intravenously (via bolus injection).
2 injections of the same dose of either DM1-Ac-Cit ((test item 1) at 0.15, 0.68 or 1.4 mg/kg/adm) or 2 injections of the same dose of DM1-Ac-Cit-Lys(Cys-ma-Lys(PEG16))-Tyr-OH ((test item 2) at 3.5 mg/kg/adm were administered separately (on Day 1 and Day 8 (7-day interval) to CD-1® IGS mice, and the reversibility and/or delayed occurrence of any findings were evaluated during a 10-day observation period. In addition, the toxicokinetic characteristics of DM1-Ac-Cit-Lys(Cys-ma-Lys(PEG16))-Tyr-OH, DM1-Ac-Cit, and the catabolite DM1 were determined.
A control group received the Vehicle Control 1: 8% Ethanol/8% Polysorbate (Tween*) 80/PBS 84%.
The study design was as follows:
The following parameters and end points were evaluated in this study: mortality, clinical observations, body weights, food consumption, ophthalmology, clinical pathology parameters (hematology and clinical chemistry), toxicokinetic parameters, organ weights, and macroscopic and microscopic examinations.

[2] = molecular target: T2, Cathepsin B (exo-Cat B cleavage) (Homo sapiens, UniProt P07858); experiment: Cat B-induced cleavage study (in vitro enzymatic cleavage assay, UHPLC-MS/MS); format: biochemical; conditions: human, recombinant human Cathepsin B, pH 5; read-out: T1/2 (cleavage by exo-Cat B)
T2 construct: purchased R&D Systems, Bio-Techne AG 953-CY-010
Procedure: as §1, §2, §3, §4, §5

Compound	half-life at 10 μM (Cathepsin B)	Ratio (T1/2 Compound/T1/2 Reference) (Cathepsin B)	also measured
COc1cc2cc(c1Cl)N(C)C(=O)C[C@H](OC(=O)[C@H](C)N(C)C(=O)CCSC1CC(=O)N(CCC(=O)N[C@@H](Cc3ccccc3)C(=O)N[C@@H](CCCNC(N)=O)C(=O)N[C@@H](Cc3ccccc3)C(=O)N[C@@H](CCCCNC(=O)CCOCCOCCOCCOCCNC(=O)CCN3C(=O)CC(SC[C@H](NC(C)=O)C(=O)O)C3=O)C(=O)O)C1=O)[C@]1(C)O[C@H]1[C@H](C)[C@@H]1C[C@@](O)(NC(=O)O1)[C@H](OC)/C=C/C=C(\C)C2 (stereo partly drawn) [Compound 7, DM1-Mal-Phe-Cit-Phe-Lys(PEG4-Mal-Cys-Ac)-OH] ({DM1Mal(CH2)2CO}-F[Cit]FK([PEG4-X1])-OH; N-terminus assumed)	72 s	0.09	–
DM1-Ac-Cit-Lys(Cys-ma-Lys(PEG16))-Tyr-OH	–	–	tolerability ([1]; 2 i.v. bolus injections at 7-day interval at 3.5 mg/kg/adm): well tolerated; related mortalities, clinical observations or effects on body weights and food consumption [1]: no; related ophthalmic findings or changes in clinical pathology parameters [1]: no; related organ weight changes, macroscopic and microscopic findings [1]: no macroscopic and microscopic findings
CC[C@H](C)[C@@H]([C@@H](CC(=O)N1CCC[C@H]1[C@H](OC)[C@@H](C)C(=O)N[C@@H](Cc1ccccc1)C(=O)N[C@@H](CCCNC(=N)N)C(=O)N[C@@H](CCCCNC(=O)CCOCCOCCOCCOCCOCCNC(=O)CCN1C(=O)CC(SC[C@H](NC(C)=O)C(=O)O)C1=O)C(=O)N[C@@H](Cc1ccccc1)C(=O)O)OC)N(C)C(=O)[C@@H](NC(=O)[C@H](C(C)C)N(C)C)C(C)C (stereo partly drawn) [Compound 1, AF-Arg-Lys(PEG4-Mal-Cys-Ac)-Phe-OH] (NMe2Val-V[Dil][Dolaproine]FRK([PEG5-X1])F-OH; N-terminus assumed)	–	0.12	–
DM1-Ac-Cit	–	–	tolerability ([1]; 2 i.v. bolus injections at 7-day interval at 0.15, 0.68, and 1.4 mg/kg/adm, female CD-1 mice): well tolerated; related mortalities, clinical observations or effects on body weights and food consumption [1]: no; related ophthalmic findings or changes in clinical pathology parameters [1]: no; related organ weight changes, macroscopic and microscopic findings [1]: no macroscopic and microscopic findings; no observed adverse effect level (NOAEL) ([1]; DM1-Ac-Cit, 2 i.v. bolus injections at 7-day interval, female CD-1 mice): 1.4 mg/kg/adm
COc1cc2cc(c1Cl)N(C)C(=O)C[C@H](OC(=O)[C@H](C)N(C)C(=O)CCSC1CC(=O)N(CC3CCC(C(=O)N[C@@H](CCCNC(N)=O)C(=O)N[C@@H](CCCCNC(=O)CCOCCOCCOCCOCCOCCNC(=O)CN4C(=O)CC(SC[C@H](NC(C)=O)C(=O)O)C4=O)C(=O)N[C@@H](Cc4ccc(O)cc4)C(=O)O)CC3)C1=O)[C@]1(C)O[C@H]1[C@H](C)[C@@H]1C[C@@](O)(NC(=O)O1)[C@H](OC)/C=C/C=C(\C)C2 (stereo partly drawn) [Compound 12, DM1-Mcc-Cit-Lys(PEG5-Ma-Cys-Ac)-Tyr-OH]	–	0.00004	half-life [2]: ≤ 60 s
COc1cc2cc(c1Cl)N(C)C(=O)C[C@H](OC(=O)[C@H](C)N(C)C(=O)CCSC1CC(=O)N(CCC(=O)N[C@@H](Cc3ccccc3)C(=O)N[C@@H](CCCCN)C(=O)N[C@@H](CCCCNC(=O)CCOCCOCCOCCOCCNC(=O)CCN3C(=O)CC(SC[C@H](NC(C)=O)C(=O)O)C3=O)C(=O)N[C@@H](Cc3ccccc3)C(=O)O)C1=O)[C@]1(C)O[C@H]1[C@H](C)[C@@H]1C[C@@](O)(NC(=O)O1)[C@H](OC)/C=C/C=C(\C)C2 (stereo partly drawn) [Compound 5, DM1-Mal-Phe-Lys-Lys(PEG4-Mal-Cys-Ac)-Phe-OH] ({DM1Mal(CH2)2CO}-FKK([PEG4-X1])F-OH; N-terminus assumed)	36 s	0.05	Cat B-induced drug release, faster as compared to reference Cys-MC-Val-Cit-PABC-MMAF (Cathepsin B): 20 times
CC[C@H](C)[C@@H]([C@@H](CC(=O)N1CCC[C@H]1[C@H](OC)[C@@H](C)C(=O)N[C@@H](Cc1ccccc1)C(=O)N[C@@H](CCCNC(N)=O)C(=O)N[C@@H](CCCCNC(=O)CCOCCOCCOCCOCCNC(=O)CCN1C(=O)CC(SC[C@H](NC(C)=O)C(=O)O)C1=O)C(=O)N[C@@H](Cc1ccccc1)C(=O)O)OC)N(C)C(=O)[C@@H](NC(=O)[C@H](C(C)C)N(C)C)C(C)C (stereo partly drawn) [Compound 8, AF-Cit-Lys(PEG4-Mal-Cys-Ac)-Phe-OH] (NMe2Val-V[Dil][Dolaproine]F[Cit]K([PEG4-X1])F-OH; N-terminus assumed)	–	0.09	–
COc1cc2cc(c1Cl)N(C)C(=O)C[C@H](OC(=O)[C@H](C)N(C)C(=O)CCSC1CC(=O)N(CCC(=O)N[C@@H](Cc3ccccc3)C(=O)N[C@@H](CCCNC(N)=O)C(=O)N[C@@H](CCCCNC(=O)CCOCCOCCOCCOCCNC(=O)CCN3C(=O)CC(SC[C@H](NC(C)=O)C(=O)O)C3=O)C(=O)N[C@@H](Cc3ccccc3)C(=O)O)C1=O)[C@]1(C)O[C@H]1[C@H](C)[C@@H]1C[C@@](O)(NC(=O)O1)[C@H](OC)/C=C/C=C(\C)C2 (stereo partly drawn) [Compound 6, DM1-Mal-Phe-Cit-Lys(PEG4-Mal-Cys-Ac)-Phe-OH] ({DM1Mal(CH2)2CO}-F[Cit]K([PEG4-X1])F-OH; N-terminus assumed)	18 s	0.02	–
CC[C@H](C)[C@@H]([C@@H](CC(=O)N1CCC[C@H]1[C@H](OC)[C@@H](C)C(=O)N[C@@H](Cc1ccccc1)C(=O)N[C@@H](CCCNC(=N)N)C(=O)N[C@@H](Cc1ccccc1)C(=O)N[C@@H](CCCCNC(=O)CCOCCOCCOCCOCCNC(=O)CCN1C(=O)CC(SC[C@H](NC(C)=O)C(=O)O)C1=O)C(=O)O)OC)N(C)C(=O)[C@@H](NC(=O)[C@H](C(C)C)N(C)C)C(C)C (stereo partly drawn) [Compound 3, AF-Arg-Phe-Lys(PEG4-Mal-Cys-Ac)-OH] (NMe2Val-V[Dil][Dolaproine]FRFK([PEG4-X1])-OH; N-terminus assumed)	–	0.11	–
COc1cc2cc(c1Cl)N(C)C(=O)C[C@H](OC(=O)[C@H](C)N(C)C(=O)CCSC1CC(=O)N(CC3CCC(C(=O)N[C@@H](Cc4ccccc4)C(=O)N[C@@H](CCCNC(N)=O)C(=O)N[C@@H](CCCCNC(=O)CCOCCOCCOCCOCCOCCNC(=O)CN4C(=O)CC(SC[C@H](NC(C)=O)C(=O)O)C4=O)C(=O)N[C@@H](Cc4ccc(O)cc4)C(=O)O)CC3)C1=O)[C@]1(C)O[C@H]1[C@H](C)[C@@H]1C[C@@](O)(NC(=O)O1)[C@H](OC)/C=C/C=C(\C)C2 (stereo partly drawn) [Compound 11, DM1-Mcc-Phe-Cit-Lys(PEG5-Ma-Cys-Ac)-Tyr-OH]	3.6 s	0.005	half-life [2]: ≤ 60 s
